row,SMILES,melting point [°C]
1,O=C(O)c1cc(/C=C/c2ccc(Cl)cc2)nc2ccc(Br)cc12,320 to 322
2,CCC(C(=O)O)N1CCCC1=O (configuration not stated),156 to 158
3,CC1CCC(C(C)C)C(OC(=O)CO)C1 (configuration not stated),85 to 87
4,O=C(O)c1cccc(CN2CCS(=O)(=O)CC2)c1,230 to 232
5,CC(=CC(=O)O)c1ccccc1Cl,75 to 77
6,CNCC(O)CN1CCCC1=O (configuration not stated),88 to 90
7,COc1cc(OC)c(NC(=O)c2cc3ccccc3cc2O)cc1Cl,199 to 201
8,O=C1C(Br)CCN1c1cccc(Cl)c1 (configuration not stated),89 to 91
9,Cc1cc(F)c(S(N)(=O)=O)cc1[N+](=O)[O-],159 to 161
10,CCc1cc(Cl)n2nc(C(=O)OC)nc2n1,179 to 181
11,O=C(NCCCN1CCCC1)OCC(F)(F)F,36 to 38
12,CC(C)(C)Oc1c(F)cc(N)cc1F,99 to 101
13,COCCOc1ccc(Cl)cc1S(N)(=O)=O,124 to 126
14,O=S(=O)(NC1CCCNC1)c1ccccc1 (configuration not stated),133 to 135
15,O=C(O)c1csc(-c2cccc([N+](=O)[O-])c2)n1,214 to 216
16,NS(=O)(=O)NCC1CCCNC1 (configuration not stated),132 to 134
17,Clc1cc2c(cc1Cl)OCO2,71 to 73
18,O=C(O)CC(n1cnc2sccc2c1=O)C(F)(F)F (configuration not stated),188 to 190
19,OCc1cc(Br)c2c(c1)OCO2,134 to 136
20,NCC1(C(N)=O)CCCC1,61 to 63
21,COc1ccc(N2C(=O)C=CC2=O)c(OC)c1,125 to 127
22,CCCC(=O)Nc1ccc(Cl)c(N)c1,96 to 98
23,CC(N)(C(=O)O)c1ccccc1 (configuration not stated),169 to 171
24,N#Cc1cc(Br)ccc1S(=O)(=O)Cl,94 to 96
25,Cc1ccc(NS(=O)(=O)c2cccc(C(=O)O)c2)c(C)c1,194 to 196
26,CC(=O)N1CCN(c2cc(C#N)ccn2)CC1,107 to 109

row,SMILES,melting point [°C]
1,COc1ccc(S(=O)(=O)N(C)C)cc1NC(=O)C(C)Cl (configuration not stated),107 to 109
2,COC(=O)c1ccc2[nH]cc(C3CCNCC3)c2c1,169 to 171
3,CCOC(=O)c1sc(N)c(C(=O)OC(C)(C)C)c1C,90 to 92
4,Cc1ccsc1C(=O)CC#N,114 to 116
5,Cc1noc(C)c1C(C)C(=O)O (configuration not stated),101 to 103
6,CNC1(C(N)=O)CCCC1,99 to 101
7,CC1(C(=O)O)CCCS1 (configuration not stated),38 to 40
8,O=C(O)c1c2c(nc3ccccc13)C(=Cc1ccccc1Cl)CCC2,98 to 100
9,COc1cc([N+](=O)[O-])ccc1NC(=O)C(C)Cl (configuration not stated),85 to 87
10,COC(=O)c1ccc(Br)c(C)c1N,79 to 81
11,NC(C(=O)O)(c1cc(F)cc(F)c1)C(F)(F)F (configuration not stated),121 to 123
12,O=C1C=CC=NC1=C(O)Nc1cccnc1,120 to 122
13,COCc1nc(OC)c2c(C)c(C(=O)O)sc2n1,188 to 190
14,O=[N+]([O-])c1ccc(N2CCOCC2)nc1,143 to 145
15,N#Cc1cccc(-n2ccnc2)c1,161 to 163
16,O=C(O)C1=CCCO1,98 to 100
17,N#CCN(CC#N)C(=O)CCCl,62 to 64
18,COc1ccc2c(c1)NC(=O)C(C)O2 (configuration not stated),138 to 140
19,Nc1cnc(Cl)c(C(=O)O)c1,193 to 195
20,CS(=O)(=O)c1nc2cc(Br)cnc2[nH]1,222 to 224
21,Cc1n[nH]c(SCC(=O)O)n1,228 to 230
22,CC(CC(=N)N)NC(=O)OC(C)(C)C (configuration not stated),91 to 93
23,O=C(O)COc1ccc(C2SCCCS2)cc1,201 to 203
24,CC(C)(C)OC(=O)N1CCOCC1C#N (configuration not stated),95 to 97
25,O=C(O)Cc1csc(-c2ccc3c(c2)OCCO3)n1,188 to 190
26,COC(=O)CCCN1C(=O)NC(C)(C)C1=O,60 to 62

row,SMILES,melting point [°C]
1,Cc1ccccc1C(=O)NCCC(=O)O,110 to 112
2,O=C(O)CNC(=O)c1cccc(Cl)c1,98 to 100
3,COc1cc(-n2cnnn2)c(Cl)cc1C(=O)O,331 to 333
4,O=C(O)c1ccc(Br)c(S(=O)(=O)N2CCOCC2)c1,167 to 169
5,CC1CCCC(NC(=O)CCl)C1C (configuration not stated),125 to 127
6,CC(C)(C)OC(=O)NC1CCCCCC1C(=O)O (configuration not stated),123 to 125
7,NC(=O)c1ccc(N2CCCCC2)c(N)c1,168 to 170
8,CCCc1noc2nc(-c3cccnc3)cc(C(=O)O)c12,259 to 261
9,Oc1cc(C2CC2)ncn1,188 to 190
10,O=C(O)c1cn2cccnc2n1,255 to 257
11,Cc1nn(CCO)c(C(F)(F)Cl)c1C(=O)O,124 to 126
12,O=C1CC(C(=O)O)CCN1 (configuration not stated),164 to 166
13,Cc1ncsc1C(=O)NC1CCNCC1,136 to 138
14,Cn1ccnc1SCC(=O)O,88 to 90
15,NC(=O)c1c(N)sc2c1CCCC2,153 to 155
16,Nc1ccc(N2CCOCC2)c(S(=O)(=O)Nc2ccccc2Cl)c1,219 to 221
17,Cc1ccc(NC(=O)CCl)cc1S(=O)(=O)N(C)C,74 to 76
18,CN(CC(=O)O)S(=O)(=O)c1cccs1,152 to 156
19,O=C(CCCl)N(c1ccccc1)C1C=CS(=O)(=O)C1 (configuration not stated),122 to 124
20,Cc1cc(C)c(C(N)=O)c(N2CCCC2)n1,174 to 176
21,O=C(Nc1ccc(C(=O)O)c(O)c1)c1cccc(Br)c1,239 to 241
22,Cc1nn(Cc2ccc(Cl)cc2Cl)c(Cl)c1C(=O)O,227 to 229
23,CC1CN(c2ccc(NC(=O)CCl)cc2)CC(C)O1 (configuration not stated),175 to 177
24,Cc1ncc(C(=O)O)c(=O)[nH]1,310 to 312
25,NNc1nc(Cl)c(Cl)cc1Cl,161 to 163
26,CCN(CC)S(=O)(=O)c1ccc(Cl)c(N)c1,84 to 88

# Further lines, results first:
row,melting point [°C],SMILES
1,168 to 170,O=C(O)c1ccc(SCCCO)cc1
2,267 to 269,O=C(O)c1ccc(-n2cccn2)nc1
3,302 to 304,Cn1cc(C(=O)O)c(=O)c2cc(Cl)ccc21
4,107 to 109,NCc1ccc(N2CCN(c3ccccn3)CC2)nc1
5,140 to 142,Cc1ccc(CNC(=O)c2ccccc2N)cc1
6,277 to 279,Sc1nc2cc(Cl)ccc2o1
7,239 to 241,Cc1nc2ccccc2c(=O)n1CC(=O)O
8,160 to 162,CC(C)(C)OC(=O)Nc1ccc(CC(N)=S)cc1
9,65 to 67,O=S(=O)(Cl)c1c(Cl)ccc2ccccc12
10,178 to 180,O=C(O)c1cnc(Cc2ccc(F)cc2)s1
11,192 to 194,NS(=O)(=O)c1ccc(NC(=O)OCC(F)(F)F)cc1
12,203 to 205,Nn1c(S)nnc1Cc1ccc(F)cc1
13,242 to 244,COc1ccc(-n2c(S)nnc2-c2ccncc2)cc1
14,196 to 198,O=C(O)c1nc(-c2cccs2)n(-c2ccc(F)cc2)n1
15,280 to 282,Cc1ccccc1-n1c(S)nnc1-c1ccncc1
16,282 to 284,O=C(O)c1ccc(CN2C(=O)CNC2=O)cc1
17,97 to 99,CS(=O)(=O)c1ccc(C2CO2)cc1 (configuration not stated)
18,119 to 121,CCOC(=O)c1cnn(-c2ccc(OCC)cc2)c1N
19,85 to 87,O=C(O)c1nc(OCC(F)(F)F)ccc1Cl
20,107 to 109,CCC(Br)C(=O)c1ccc(NC(C)=O)cc1 (configuration not stated)
21,156 to 158,CC(C)c1nnc(S)[nH]1
22,241 to 243,O=C(O)Cn1cnc2ccccc2c1=O

row,melting point [°C],SMILES
1,79 to 81,CNC(CO)c1cccc(Br)c1 (configuration not stated)
2,235 to 237,O=C(O)c1cn(-c2ccccc2)nc1-c1ccncc1
3,116 to 118,NC(=O)C(F)(F)c1ccccc1
4,127 to 129,CC(C)c1ccc(NCC(=O)N2CCCC2)cc1
5,120 to 122,O=C(O)Cn1ncc(=O)c2ccccc21
6,132 to 134,Cc1nnc(S)n1C1CC1
7,173 to 175,Cc1ccc(-c2nc(N)sc2C)cc1
8,116 to 118,O=C(O)c1ncccc1OCC(F)(F)F
9,115 to 117,Cc1nc(C=O)c2ccccn12
10,123 to 125,O=Cc1cccc(OCc2occc2C(=O)O)c1
11,97 to 99,Cc1nccn1-c1cccc(F)n1
12,174 to 176,CC(CO)NC(=O)c1ccc(N)cc1 (configuration not stated)
13,188 to 190,Nc1nc(-c2ccccc2OC(F)F)n[nH]1
14,143 to 145,N#Cc1ccccc1SCC(=O)O
15,63 to 65,COc1ccc(CCCC(=O)O)cc1F
16,173 to 175,CCCCOc1ccc2cc(C(=O)O)[nH]c2c1
17,159 to 161,c1ccc(-c2nc[nH]n2)nc1
18,178 to 180,Cn1ccnc1-c1cc(N)on1
19,157 to 159,COC(=O)c1ccc(-n2c(C)cc(C(=O)CCl)c2C)cc1
20,159 to 161,O=C(O)c1cc(COc2c(Cl)cccc2Cl)on1
21,155 to 157,Nc1nnc(C(F)(F)F)[nH]1
22,96 to 98,COc1ccccc1CNc1nc(-c2ccc(C)cc2)cs1

row,melting point [°C],SMILES
1,182 to 184,O=C(O)C=Cc1ccc(OC(F)F)cc1
2,63 to 65,ClCc1ncc(-c2ccccc2)o1
3,189 to 191,O=C(O)Cc1ccc(NC(=O)c2cc3ccccc3o2)cc1
4,93 to 95,COc1ccccc1-c1cc(N)on1
5,96 to 98,O=C(O)C(Oc1ccc(F)cc1F)c1ccccc1 (configuration not stated)
6,169 to 171,Cc1onc(-c2cccc(Br)c2)c1C(=O)O
7,138 to 140,CCc1ccc2c(CCl)cc(=O)oc2c1
8,297 to 299,Cc1nc(-c2ccc(C)c(NC(=O)CCl)c2)n[nH]1
9,170 to 172,O=[N+]([O-])c1c(Cl)nc2ccccn12
10,65 to 67,CC(C)Oc1ccc2ccccc2c1C=O
11,159 to 161,O=C(O)c1cc(F)cc2cccnc12
12,235 to 237,COc1ccc(-c2nnc(N)o2)cc1OC
13,113 to 115,OCc1nc2cc(Cl)ccc2s1
14,131 to 133,NNS(=O)(=O)Cc1ccccc1
15,113 to 115,O=C(O)CCC(=O)c1ccc(F)cc1F
16,105 to 107,Nc1ncc(Cc2ccc(F)c(F)c2F)s1
17,123 to 125,O=C(CCl)c1nnc(-c2ccccc2)o1
18,66 to 68,O=Cc1ccc(-c2ccccc2F)o1
19,140 to 142,CC(=O)c1ccc(SCC(=O)O)c(F)c1
20,124 to 126,N#Cc1ccc(-c2cnc(CCl)o2)cc1

# — a melting point compilation (Tetko et al.)
